The values that follow come from patent US10906878B2, “Kinase inhibitors for the treatment of disease” (Dana-Farber Cancer Institute, Inc., priority 2013, dated 2021).

Assay type in all cases: cell-based
Experiment [1] addresses EGFR Del Ba/F3 cells (Homo sapiens, UniProt P00533, cells depend on it, form not given). Description: Ba/F3 cell growth inhibition (MTS assay), EGFR Del. The following applies: for IC50: Assay 1, Del, read-out: EGFR Ba/F3 cells IC 50 (nM) Assay 1 Del. An excerpt: (§1) The specific cDNAs encoding the oncogenic alterations (EGFR: Del 19, L858R, L718Q, L844V, Del/T790M, L858R/T790M, Del 19/L718Q, Del 19/L844V, Del 19/T790M/L718Q and L858R/T790M/L718Q; FGFR: TEL-FGFR1, TEL-FGFR2, TEL-FGFR1 V561M, TEL-FGFR2 V561M; ALK: EML4-ALK; ROS1: CD74-ROS1) were cloned into the pDNA-Dual (BD Biosciences) vector using standard molecular biology techniques. Mutations were introduced using site-directed mutagenesis (Agilent) with mutant specific primers according to the manufacturer's instructions. All constructs were confirmed by DNA sequencing. The constructs were introduced into Ba/F3 cells using retroviral infection. Polyclonal cell lines were established by puromycin selection and subsequently cultured in the absence of interleukin-3 (IL-3). Uninfected Ba/F3 cells or cell lines expressing green fluorescent protein (GFP) were used as controls.
(§2) Growth and inhibition of growth was assessed by MTS assay. This assay, a colorimetric method for determining the number of viable cells, is based on the bioreduction of 3-(4,5-dimethylthiazol-2-yl)-5-(3-carboxymethoxyphenyl)-2-(4-sulfophenyl)-2H-tetrazolium (MTS) by cells to a formazan product that is soluble in cell culture medium, can be detected spectrophotometrically and was performed according to the manufacturer's recommended conditions. Ba/F3 cells were exposed to treatment for 72 hours and the number of cells used per experiment determined empirically to assure linear growth kinetics over that time period. All experimental points were set up in six to twelve wells and all experiments were repeated at least three times. […] The curves were fitted using a non-linear regression model with a sigmoidal dose response.
For orientation: Tetrazolium assays rely on reduction of a dye to a coloured formazan, in cell work by metabolically active cells.

Experiment [2] addresses EGFR Del/T790M Ba/F3 cells (Homo sapiens, UniProt P00533, T790M, cells depend on it, form not given). The experiment can be described thus: Ba/F3 cell growth inhibition (MTS assay), EGFR Del/T790M. The following applies: for EGFR activity (% Control, 100 nM drug) Del/T790M: Table G; for EGFR activity (% Control, 100 nM drug) DEL/T790M: Table F; for IC50: Assay 1, Del/T790M, read-out: EGFR Ba/F3 cells IC 50 (nM) Assay 1 Del/T790M.
Text: as §1, §2

The target of experiment [3] is EGFR L858R/T790M Ba/F3 cells (Homo sapiens (Human), UniProt P00533, L858R/T790M). The experiment can be described thus: Ba/F3 cell growth inhibition (MTS assay), EGFR L858R/T790M. The conditions noted are these: for IC50: Assay 1, L858R/T790M, read-out: EGFR Ba/F3 cells IC 50 (nM) Assay 1 L858R/T790M.
Text: as §1, §2

The target of experiment [4] is EGFR L858R Ba/F3 cells (Homo sapiens (Human), UniProt P00533, L858R). The experiment can be described thus: Ba/F3 cell growth inhibition (MTS assay), EGFR L858R. The following applies: for IC50: Assay 1, L858R, read-out: EGFR Ba/F3 cells IC 50 (nM) Assay 1 L858R.
Text: as §1, §2

The target of experiment [5] is EGFR L718Q/L858R Ba/F3 cells (Homo sapiens (Human), UniProt P00533, L718Q/L858R). The experiment can be described thus: Ba/F3 cell growth inhibition (MTS assay), EGFR L858R/L718Q. The following applies: for EGFR activity (% Control, 100 nM drug) L858R/L718Q: Table F; for IC50: Assay 1, L718Q/L858R, read-out: EGFR Ba/F3 cells IC 50 (nM) Assay 1 L718Q/L858R.
Experiment [6] addresses EGFR L858R/T790M/L718Q Ba/F3 cells (Homo sapiens (Human), UniProt P00533, L718Q/L858R/T790M). The experiment can be described thus: Ba/F3 cell growth inhibition (MTS assay), EGFR L858R/T790M/L718Q. The conditions noted are these: for EGFR activity (% Control, 100 nM drug) L858R/T790M/L718Q: Table F; for IC50: Assay 1, T/L/L718Q, read-out: EGFR Ba/F3 cells IC 50 (nM) Assay 1 T/L/L718Q.
Text: as §1, §2

In the case of `C=CC(=O)N1CCC[C@H]1C(=O)Nc1ccc(OC)c(Nc2cc(N(C)C(=O)NCc3ccccc3)ncn2)c1` [Compound 23A], in experiment [1] (Table G), the “EGFR activity (% Control, 100 nM drug) Del” value is listed as 106 % Control. Further, in experiment [2], the “EGFR activity (% Control, 100 nM drug) Del/T790M” value is 102 % Control. In experiment [3] (Table G), the “EGFR activity (% Control, 100 nM drug) L858R/T790M” value turned out to be 111 % Control. Moreover, the “EGFR activity (% Control, 100 nM drug) L858R” value in experiment [4] (Table G) amounted to 99 % Control.
For `C=CC(=O)Nc1cccc(Nc2cc(N(C)C(=O)NCc3ccccc3)ncn2)c1` [Compound 17A], in experiment [1] (Table F), the “EGFR activity (% Control, 100 nM drug) Del” value was 28 % Control. Besides, the IC50 in experiment [1] turned out to be 63.9 nM; in experiment [2] it was 682 nM; in experiment [3], 275 nM; in experiment [5], 1960 nM; in experiment [6], 2500 nM; in experiment [4], 7.62 nM. In addition, the “EGFR activity (% Control, 100 nM drug) DEL/T790M” value in experiment [2] worked out at 85 % Control. In experiment [3] (Table F), the “EGFR activity (% Control, 100 nM drug) L858R/T790M” value turned out to be 52 % Control. Besides, the “EGFR activity (% Control, 100 nM drug) L858R/L718Q” value in experiment [5] was determined as 81 % Control. Further, the “EGFR activity (% Control, 100 nM drug) L858R/T790M/L718Q” value in experiment [6] amounted to 85 % Control. In addition, the “EGFR activity (% Control, 100 nM drug) L858R” value in experiment [4] (Table F) was 2 % Control.
In the case of `C=CC(=O)Nc1ccc(OC)c(Nc2cc(N(C)C(=O)Nc3ccccc3)ncn2)c1` [Compound 74A], the IC50 in experiment [1] was found to be 5.16 nM; in experiment [2], 278 nM; in experiment [3], 215 nM; in experiment [5], 243 nM; in experiment [6], 780 nM; in experiment [4] it was 0.572 nM.
Turning to `COc1ccc(NC(=O)/C=C/CN(C)C)cc1Nc1cc(N(C)C(=O)Nc2ccccc2)ncn1` [Compound 20A], the “EGFR activity (% Control, 100 nM drug) Del” value in experiment [1] (Table F) was 2 % Control. Besides, the IC50 in experiment [1] stood at 2.58 nM; in experiment [2], 211 nM; in experiment [3], 99.1 nM; in experiment [5], 256 nM; in experiment [6], 917 nM; in experiment [4], 0.994 nM. In addition, the “EGFR activity (% Control, 100 nM drug) DEL/T790M” value in experiment [2] is given as 126 % Control. In addition, the “EGFR activity (% Control, 100 nM drug) L858R/T790M” value in experiment [3] (Table F) is 26 % Control. For the same molecule, the “EGFR activity (% Control, 100 nM drug) L858R/L718Q” value in experiment [5] was determined as 48 % Control. Besides, in experiment [6], the “EGFR activity (% Control, 100 nM drug) L858R/T790M/L718Q” value was determined as 93 % Control. Moreover, in experiment [4] (Table F), the “EGFR activity (% Control, 100 nM drug) L858R” value is given as 2 % Control.
With `C=CC(=O)Nc1cccc(Nc2cc(N(C)C(=O)Nc3ccc(F)c(Cl)c3)ncn2)c1` [Compound 19A], the “EGFR activity (% Control, 100 nM drug) Del” value in experiment [1] (Table F) is 79 % Control. Further, the “EGFR activity (% Control, 100 nM drug) DEL/T790M” value in experiment [2] was 71 % Control. Besides, the “EGFR activity (% Control, 100 nM drug) L858R/T790M” value in experiment [3] (Table F) was 101 % Control. Besides, the “EGFR activity (% Control, 100 nM drug) L858R/L718Q” value in experiment [5] is recorded as 74 % Control. The “EGFR activity (% Control, 100 nM drug) L858R/T790M/L718Q” value in experiment [6] worked out at 99 % Control. The “EGFR activity (% Control, 100 nM drug) L858R” value in experiment [4] (Table F) turned out to be 100 % Control.
Turning to `C=CC(=O)Nc1cccc(Nc2cc(N(C(=O)Nc3ccccc3)c3ccc(N4CCN(C)CC4)cc3)ncn2)c1` [Compound 26A], the “EGFR activity (% Control, 100 nM drug) Del” value in experiment [1] (Table G) is listed as 87 % Control. The “EGFR activity (% Control, 100 nM drug) Del/T790M” value in experiment [2] worked out at 91 % Control. The “EGFR activity (% Control, 100 nM drug) L858R/T790M” value in experiment [3] (Table G) amounted to 100 % Control. Moreover, the “EGFR activity (% Control, 100 nM drug) L858R” value in experiment [4] (Table G) is reported as 11 % Control.
For `C=CC(=O)N1CC[C@@H](CN(C(=O)Nc2ccccc2)c2cc(Nc3ccc(N4CCN(C)CC4)cc3OC)ncn2)C1` [Compound 32A], the “EGFR activity (% Control, 100 nM drug) Del” value in experiment [1] (Table G) amounted to 104 % Control. Besides, in experiment [2], the “EGFR activity (% Control, 100 nM drug) Del/T790M” value was found to be 106 % Control. Further, in experiment [3] (Table G), the “EGFR activity (% Control, 100 nM drug) L858R/T790M” value is 110 % Control. Also, the “EGFR activity (% Control, 100 nM drug) L858R” value in experiment [4] (Table G) is recorded as 99 % Control.
Regarding `C=CC(=O)N1CCC[C@H]1C(=O)Nc1cc2c(N(CCOC)C(=O)NCc3ccccc3)ncnc2cc1OC` [Compound 31A], in experiment [1] (Table G), the “EGFR activity (% Control, 100 nM drug) Del” value amounted to 111 % Control. Besides, the “EGFR activity (% Control, 100 nM drug) Del/T790M” value in experiment [2] is 110 % Control. Further, the “EGFR activity (% Control, 100 nM drug) L858R/T790M” value in experiment [3] (Table G) was determined as 112 % Control. Also, the “EGFR activity (% Control, 100 nM drug) L858R” value in experiment [4] (Table G) was determined as 108 % Control.
